≈ marks a conversion by molar mass, not a printed value. Read-outs that look alike come from different tables or passages of the source.
Experiments:
3A4 = 3A4 (Homo sapiens, UniProt P08684); test: inhibition of cytochrome P450 enzymes; assay type: in vitro ADME; parameters: 0.1 mg/mL human liver microsomes (HLM) and Substrate Mix; from tissue; host or cells: human liver microsomes; conditions: human liver microsomes; read-out: CYP450 3A4 inhibition
Procedure: A cocktail of substrates for cytochrome P450 enzymes (1A2: Phenacetin, 10 μM; 2C9: Diclofenac, 5 μM; 2D6: Dextromethorphan, 5 μM; 3A4: Midazolam, 2 μM) were mixed for cocktail analysis. For P450 2C19, the substrate stock (Mephenytoin, 40 μM)and substrate mix were prepared separately for discrete analysis. The positive control for pan-P450 inhibition (miconazole) was included alongside each test compound in analysis.
A reaction mixture of 100 mM Kpi, pH 7.4, 0.1 mg/mL human liver microsomes (HLM) and Substrate Mix is prepared and aliquoted into a 96-deepwell block. Test compound and positive control (in duplicate) were then added such that the final concentration of test compound ranged from 0.1–30 μM. […]
Samples were analyzed via electrospray ionization (ESI) on an AB Sciex API-4000 (Foster City, CA) triple-quadrupole instrument that was coupled with Shimadzu LC-10AD pumps (Columbia, MD) and a Leap Technologies CTC PAL autosampler (Carrboro, NC). […]
The IC50 values for each compound were obtained for the individual CYP enzymes by quantitating the inhibition of metabolite formation for each probe substrate. A 0 μM compound condition (or control) was set to 100% enzymatic activity and the effect of increasing test compound concentrations on enzymatic activity could then be calculated from the % of control activity. […]

[1] = satellite PK for mouse AHL; assay type: in vivo
Text: In parallel with the rat AHL study, we carried out a mouse AHL study to determine if the PK/PD relationship would remain intact across rodent species.

[2] = solubility (kinetic, FaSSIF, FaSSGF); assay type: physicochemical
Procedure: Over the course of the mGlu1 PAM program, 19d became an assay standard and was assayed multiple times, affording refined potency values.[20]

rats = test: rat AHL Cmax versus Ctrough study; assay type: in vivo
Procedure: Based on these positive behavioral data and the clear PK/PD relationship tied to achieving free brain levels at, or above, the mGlu1 PAM EC50, we next wanted to define the role of Cmax versus Ctrough drug (19d) concentrations in driving the PK/PD relationship. To accomplish this, pretreatment times and doses were calculated based upon previous PK (see Supporting Information Figure S3)[20] data to target free brain concentrations at and below the in vitro EC50 at the time of amphetamine challenge. Rats were pretreated with 3 mg/kg 19d or vehicle after habituation to the locomotor chambers are described in Figure 9A. Rats pretreated with 19d (10–60 mg/kg) or vehicle were administered compound prior to starting the amphetamine-induced hyperlocomotion experiment as depicted in Figure 9B-D. Ambulations were evaluated for 90 min post amphetamine treatment for all dosing groups. Pretreatment of 19d, chamber habituation, amphetamine treatment and ambulation recording times are outlined for each dosing group in Figure 9. Blood and brain samples were obtained at the end of testing (EOT) to determine 19d levels at the end of the study (Table 6).
The terminal free brain concentrations for this dosing group were 40 nM.
Figure 10 Amphetamine-induced hyperlocomotion in rats. A) 1 h pretreatment of 3 mg/kg 19d. B) 5 h pretreatment of 10 mg/kg 19d. C) 28.5 h pretreatment of 60 mg/kg 19d. Total ambulation from 95 to 180 min. *p < 0.05 compared to Vehicle + Amphetamine treated animals. TEXT PRINTED IN THE PICTURE: (A) 19d: Mean % reversal 27.3% * (3 mg/kg 19d + AMP) | (B) 19d: Mean % reversal 25.1% * (10 mg/kg 19d + AMP) | (C) 19d: Mean % reversal 7.3% (60 mg/kg 19d + AMP) DOUBTS OF THE COPYIST ABOUT THIS PICTURE: 19d, panel A, Mean % reversal: small print, 27.3% could be 27.8% / 19d, panel B, Mean % reversal: small print, 25.1% could be 26.1% / 19d, panel C, Mean % reversal: small print, 7.3% could be 7.8%

human mGlu1 = biological target: T1, human mGlu1 (Homo sapiens, UniProt Q13255); test: progressive fold-shift assay, operational model of allosterism; assay type: cell-based
T1 construct: expressed in transfected cells; pcDNA5/TO)
T1 sequence (Q13255 19-1194): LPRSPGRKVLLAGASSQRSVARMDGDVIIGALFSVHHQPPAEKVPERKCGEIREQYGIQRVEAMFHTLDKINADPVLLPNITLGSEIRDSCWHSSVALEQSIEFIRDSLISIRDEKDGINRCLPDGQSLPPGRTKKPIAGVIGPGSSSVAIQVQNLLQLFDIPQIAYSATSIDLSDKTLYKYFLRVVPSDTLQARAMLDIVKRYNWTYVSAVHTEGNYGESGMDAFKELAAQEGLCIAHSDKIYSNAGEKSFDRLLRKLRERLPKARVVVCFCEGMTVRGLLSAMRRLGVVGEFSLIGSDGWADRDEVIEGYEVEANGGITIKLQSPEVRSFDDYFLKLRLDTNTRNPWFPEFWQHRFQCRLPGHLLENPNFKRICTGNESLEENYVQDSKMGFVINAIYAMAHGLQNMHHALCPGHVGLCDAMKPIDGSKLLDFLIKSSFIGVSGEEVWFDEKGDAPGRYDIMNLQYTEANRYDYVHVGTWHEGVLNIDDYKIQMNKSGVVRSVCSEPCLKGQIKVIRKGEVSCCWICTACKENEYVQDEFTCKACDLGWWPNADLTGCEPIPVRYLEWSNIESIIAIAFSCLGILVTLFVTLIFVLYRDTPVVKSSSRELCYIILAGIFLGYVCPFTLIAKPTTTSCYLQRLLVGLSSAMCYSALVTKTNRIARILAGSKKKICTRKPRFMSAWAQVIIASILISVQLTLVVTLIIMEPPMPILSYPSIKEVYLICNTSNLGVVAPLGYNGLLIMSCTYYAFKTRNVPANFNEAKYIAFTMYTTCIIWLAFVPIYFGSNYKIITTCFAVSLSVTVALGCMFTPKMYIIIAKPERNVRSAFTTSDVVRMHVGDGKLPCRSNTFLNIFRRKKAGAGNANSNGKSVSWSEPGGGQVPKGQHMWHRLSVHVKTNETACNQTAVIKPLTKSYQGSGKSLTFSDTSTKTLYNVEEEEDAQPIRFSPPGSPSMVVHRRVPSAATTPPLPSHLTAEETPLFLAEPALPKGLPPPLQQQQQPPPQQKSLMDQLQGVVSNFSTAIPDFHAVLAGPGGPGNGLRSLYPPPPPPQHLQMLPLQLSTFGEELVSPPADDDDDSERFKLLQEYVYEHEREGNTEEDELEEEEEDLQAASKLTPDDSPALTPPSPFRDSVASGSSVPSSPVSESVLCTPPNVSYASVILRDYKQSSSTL
Text: (§1) To further characterize this novel mGlu1 PAM, we performed progressive fold-shift assays at both human and rat mGlu1 (Figure 4).
(§2) Figure 4 Operational modeling of the effects of increasing concentrations of VU6024578 (19d) on rat (A) and human (B) mGlu1receptors. Increasing amounts of 19d were applied prior to increasing concentrations of glutamate at either rat or human mGlu1. Data were fit in GraphPad Prism as indicated in the Methods section; for panel A, log α was 0.95 and for panel B it was 1.26. Data represent one experiment performed in duplicate.

rat mGlu1 = rat mGlu1 (Rattus norvegicus, UniProt P23385); test: as above; assay type: cell-based
rat mGlu1, sequence (P23385 19-1199): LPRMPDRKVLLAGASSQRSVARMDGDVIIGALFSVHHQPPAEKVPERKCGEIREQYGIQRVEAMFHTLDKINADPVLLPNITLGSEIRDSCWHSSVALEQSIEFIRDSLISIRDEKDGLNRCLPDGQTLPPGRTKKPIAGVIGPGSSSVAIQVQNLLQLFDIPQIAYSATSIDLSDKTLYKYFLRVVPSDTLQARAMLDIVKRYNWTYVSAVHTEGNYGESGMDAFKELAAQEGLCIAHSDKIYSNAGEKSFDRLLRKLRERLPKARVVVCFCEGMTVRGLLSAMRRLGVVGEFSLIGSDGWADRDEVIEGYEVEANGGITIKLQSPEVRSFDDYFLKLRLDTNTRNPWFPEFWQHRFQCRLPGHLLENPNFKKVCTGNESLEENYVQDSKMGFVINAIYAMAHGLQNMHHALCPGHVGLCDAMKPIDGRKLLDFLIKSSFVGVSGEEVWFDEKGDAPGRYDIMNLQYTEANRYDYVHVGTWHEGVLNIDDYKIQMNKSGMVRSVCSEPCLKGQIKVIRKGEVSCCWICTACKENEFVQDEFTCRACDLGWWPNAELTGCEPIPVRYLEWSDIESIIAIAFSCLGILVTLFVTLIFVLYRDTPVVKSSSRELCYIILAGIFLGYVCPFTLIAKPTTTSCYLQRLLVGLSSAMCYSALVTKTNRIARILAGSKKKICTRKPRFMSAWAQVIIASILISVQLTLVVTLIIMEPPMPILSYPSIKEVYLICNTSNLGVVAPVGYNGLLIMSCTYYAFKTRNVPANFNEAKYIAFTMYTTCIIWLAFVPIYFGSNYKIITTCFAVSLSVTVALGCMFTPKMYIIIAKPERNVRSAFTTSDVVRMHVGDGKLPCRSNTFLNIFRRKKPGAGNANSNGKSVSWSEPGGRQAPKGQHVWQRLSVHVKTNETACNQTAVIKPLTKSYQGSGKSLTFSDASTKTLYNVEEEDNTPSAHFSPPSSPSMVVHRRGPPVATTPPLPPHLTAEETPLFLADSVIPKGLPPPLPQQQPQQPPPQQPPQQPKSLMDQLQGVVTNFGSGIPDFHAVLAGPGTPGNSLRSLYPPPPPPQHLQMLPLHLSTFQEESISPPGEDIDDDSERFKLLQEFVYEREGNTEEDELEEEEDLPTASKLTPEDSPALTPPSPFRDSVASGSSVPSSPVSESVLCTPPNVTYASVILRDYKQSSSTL
Text: as §1, §2

dog mGlu1 = dog mGlu1 (Canis lupus familiaris, UniProt A0A8I3NTE8); test: mGlu1 PAM assay, dog receptor; assay type: cell-based; conditions: read-out: dog mGlu1 Glumax
dog mGlu1, sequence (A0A8I3NTE8 30-1195): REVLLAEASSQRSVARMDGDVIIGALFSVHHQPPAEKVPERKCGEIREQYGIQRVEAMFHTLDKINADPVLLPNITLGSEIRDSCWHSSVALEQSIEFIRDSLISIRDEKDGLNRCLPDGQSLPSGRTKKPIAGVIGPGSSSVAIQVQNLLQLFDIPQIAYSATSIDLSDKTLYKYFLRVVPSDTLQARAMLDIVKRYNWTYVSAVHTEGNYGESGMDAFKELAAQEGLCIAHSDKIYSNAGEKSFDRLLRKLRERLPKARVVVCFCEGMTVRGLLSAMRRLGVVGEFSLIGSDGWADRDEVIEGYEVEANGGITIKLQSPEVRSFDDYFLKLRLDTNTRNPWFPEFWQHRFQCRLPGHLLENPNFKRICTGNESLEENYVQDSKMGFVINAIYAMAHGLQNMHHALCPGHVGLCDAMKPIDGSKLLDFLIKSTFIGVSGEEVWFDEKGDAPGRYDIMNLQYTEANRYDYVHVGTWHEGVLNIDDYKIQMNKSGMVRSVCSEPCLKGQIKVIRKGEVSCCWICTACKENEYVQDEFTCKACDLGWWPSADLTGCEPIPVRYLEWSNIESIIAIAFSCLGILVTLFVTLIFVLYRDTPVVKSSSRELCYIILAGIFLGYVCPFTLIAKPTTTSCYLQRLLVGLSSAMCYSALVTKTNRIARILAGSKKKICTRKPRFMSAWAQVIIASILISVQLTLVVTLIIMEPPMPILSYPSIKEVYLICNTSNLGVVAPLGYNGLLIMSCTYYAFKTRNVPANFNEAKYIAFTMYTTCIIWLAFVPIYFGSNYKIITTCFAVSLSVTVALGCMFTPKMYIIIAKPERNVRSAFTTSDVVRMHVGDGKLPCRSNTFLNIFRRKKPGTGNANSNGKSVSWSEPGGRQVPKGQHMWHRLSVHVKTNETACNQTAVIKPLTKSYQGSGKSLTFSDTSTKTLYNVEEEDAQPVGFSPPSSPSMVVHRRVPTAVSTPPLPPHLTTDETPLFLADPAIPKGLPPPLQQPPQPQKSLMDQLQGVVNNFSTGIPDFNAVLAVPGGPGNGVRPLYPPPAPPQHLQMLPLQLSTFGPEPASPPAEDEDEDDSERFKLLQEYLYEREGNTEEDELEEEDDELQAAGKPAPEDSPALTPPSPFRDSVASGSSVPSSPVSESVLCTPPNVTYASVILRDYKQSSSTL

3A4, sequence (P08684 whole entry): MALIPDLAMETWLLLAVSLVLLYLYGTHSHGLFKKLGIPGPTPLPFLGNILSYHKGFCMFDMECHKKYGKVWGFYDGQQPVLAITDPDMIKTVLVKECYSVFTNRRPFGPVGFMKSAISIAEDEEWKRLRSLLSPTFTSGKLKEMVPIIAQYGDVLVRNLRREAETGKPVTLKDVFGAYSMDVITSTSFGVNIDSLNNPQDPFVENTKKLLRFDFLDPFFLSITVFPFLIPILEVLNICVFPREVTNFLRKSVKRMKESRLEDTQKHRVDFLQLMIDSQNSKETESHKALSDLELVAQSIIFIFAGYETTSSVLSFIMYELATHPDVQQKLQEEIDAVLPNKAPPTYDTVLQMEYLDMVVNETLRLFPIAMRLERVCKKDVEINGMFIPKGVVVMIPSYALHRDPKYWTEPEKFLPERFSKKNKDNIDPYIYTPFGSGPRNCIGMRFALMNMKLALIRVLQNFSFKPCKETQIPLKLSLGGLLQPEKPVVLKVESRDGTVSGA

**Q.** With `Cn1nc(-c2ccnn2C)cc1CNC(=O)c1cc(-c2ccco2)ccc1Cl` [Compound 19d, 2-Chloro-N-((1,2′-dimethyl-1H,2’H-[3,3′-bipyrazol]-5-yl)methyl)-5-(furan-2-yl)benzamide] as the compound, how does the IC50 (3A4) read?
**A.** The IC50 was 22000 nM.

**Q.** And the free brain concentration ([1]; 10 mg/kg)?
**A.** The free brain concentration was 36 nM.

**Q.** And the “free brain concentration over the EC50” value ([1]; 10 mg/kg)?
**A.** The value was 1.3 fold.

**Q.** What about the free brain concentration ([1]; 30 mg/kg) of the same compound?
**A.** The free brain concentration was 67 nM.

**Q.** What about the “free brain concentration over the EC50” value ([1]; 30 mg/kg) of the same compound?
**A.** The value was 2.5 fold.

**Q.** What about the solubility ([2]; FaSSGF, fassgf or other biorelevant, read-out: FaSSGF solubility) of the same compound?
**A.** The solubility was 2.5 µM (≈ 0.99 µg/mL).

**Q.** And the solubility ([2]; FaSSIF, read-out: FaSSIF solubility)?
**A.** Its solubility is 2.5 µM (≈ 0.99 µg/mL).

**Q.** What about the solubility kinetic ([2]; pH 7.4, aqueous buffer, kinetic from dmso stock) of the same compound?
**A.** Its solubility kinetic is 4.1 µM (≈ 1.62 µg/mL).

**Q.** What about the “effect on AHL, in words” value (rats; 3 mg/kg, 1 h prior to amphetamine) of the same compound?
**A.** The value was “significantly reduced”.

**Q.** And the “effect on AHL, in words” value (rats; 10 mg/kg, 5 h before amphetamine)?
**A.** The value was “significantly reduced”.

**Q.** And the “reduction of locomotor activity after amphetamine, in words” value (rats; 60 mg/kg, 28.5 h before amphetamine)?
**A.** Its value is “not demonstrated”.

**Q.** And the Kb (human mGlu1; human mGlu1, operational model of allosterism, read-out: estimated KB)?
**A.** The Kb was 219 nM.

**Q.** What about the “log α” value (human mGlu1; panel B (human), one experiment in duplicate) of the same compound?
**A.** The value was 1.26.

**Q.** And the EC50 (human mGlu1; printed in Figure 4B)?
**A.** The EC50 was 46 nM.

**Q.** What about the EC50 (rat mGlu1; in Figure 4A) of the same compound?
**A.** Its EC50 is 44 nM.

**Q.** And the “log α” value (rat mGlu1; panel A (rat), one experiment in duplicate)?
**A.** Its value is 0.95.

**Q.** What about the Kb (rat mGlu1; rat mGlu1, operational model of allosterism, read-out: estimated KB) of the same compound?
**A.** Its Kb is 1040 nM.

**Q.** And the Kb (rat mGlu1; rat mGlu1, printed in Figure 4A, read-out: KB)?
**A.** Its Kb is 1040 nM.

**Q.** And the Emax (dog mGlu1)?
**A.** Its Emax is 129%.

From publication PMC11684029, “Discovery of VU6024578/BI02982816: An mGlu1 Positive Allosteric Modulator with Efficacy in Preclinical Antipsychotic and Cognition Models” (Journal of Medicinal Chemistry, 2024)
